What was measured:
[1] = Antitumor activity against Mus musculus (mouse) DLA cells transplanted in Swiss albino mouse assessed as decrease in alkaline phosphatase level at 50 mg/kg, ip qd administered 24 hr post tumor transplantation for 14 days measured on day 14 (reference value: 242.22 +/- 4.3 U/L); assay type: functional; conditions: route intraperitoneal
[2] = Antitumor activity against Mus musculus (mouse) DLA cells transplanted in Swiss albino mouse assessed as decrease in packed cell volume at 50 mg/kg, ip qd administered 24 hr post tumor transplantation for 14 days measured on day 14 (reference value: 30.55 +/- 3.52%); assay type: functional; set-up: scale not given: the % may be the effect or the level left; conditions: route intraperitoneal
[3] = Antitumor activity against Mus musculus (mouse) DLA cells transplanted in Swiss albino mouse assessed as increase in haemoglobin level at 50 mg/kg, ip qd administered 24 hr post tumor transplantation for 14 days measured on day 14 (reference value: 7.12 +/- 0.95 g/dl); assay type: functional; conditions: route intraperitoneal
[4] = Antitumor activity against Mus musculus (mouse) DLA cells transplanted in Swiss albino mouse assessed as increase in RBC count at 50 mg/kg, ip qd administered 24 hr post tumor transplantation for 14 days measured on day 14 (reference value: 2.46 +/- 0.45 million/mm3); assay type: functional; conditions: route intraperitoneal
[5] = Antitumor activity against Mus musculus (mouse) DLA cells transplanted in Swiss albino mouse assessed as decrease in total WBC count measured 10^3 cells at 50 mg/kg, ip qd administered 24 hr post tumor transplantation for 14 days measured on day 14 (reference value: 14.40 +/- 2.5 ml); assay type: functional; set-up: unit not given here; conditions: route intraperitoneal
Mus musculus = assay: Acute toxicity in ip dosed albino Mus musculus (mouse) after 24 hr; assay type: organism-based; conditions: in vivo
[6] = Antitumor activity against Mus musculus (mouse) DLA cells transplanted in Swiss albino mouse assessed as decrease in cancer cell count measured 10^6 cells at 50 mg/kg, ip qd administered 24 hr post tumor transplantation for 14 days measured on day 14 (reference value: 2.76 +/- 0.33 ml); assay type: functional, Cancer cell lines; conditions: route intraperitoneal
[7] = Antitumor activity against Mus musculus (mouse) DLA cells transplanted in Swiss albino mouse assessed as decrease in body weight at 50 mg/kg, ip qd administered 24 hr post tumor transplantation for 14 days measured on day 14 (reference value: 7.6 +/- 0.94 g); assay type: functional; conditions: route intraperitoneal
[8] = Antitumor activity against Mus musculus (mouse) DLA cells transplanted in Swiss albino mouse assessed as increase in life span at 50 mg/kg, ip qd administered 24 hr post tumor transplantation for 14 days measured on day 14 (reference value: 50%); assay type: functional; conditions: route intraperitoneal
[9] = Antitumor activity against Mus musculus (mouse) DLA cells transplanted in Swiss albino mouse assessed as decrease in alanine amino transferase level at 50 mg/kg, ip qd administered 24 hr post tumor transplantation for 14 days measured on day 14 (reference value: 61.2 +/- 2.6 U/L); assay type: functional; conditions: route intraperitoneal
[10] = Antitumor activity against Mus musculus (mouse) DLA cells transplanted in Swiss albino mouse assessed as decrease in aspartate amino transferase level at 50 mg/kg, ip qd administered 24 hr post tumor transplantation for 14 days measured on day 14 (reference value: 85.6 +/- 2.72 U/L); assay type: functional; conditions: route intraperitoneal
[11] = Antitumor activity against Mus musculus (mouse) DLA cells transplanted in Swiss albino mouse assessed as decrease in triglyceride level at 50 mg/kg, ip qd administered 24 hr post tumor transplantation for 14 days measured on day 14 (reference value: 210.12 +/- 4.65 mg/dl); assay type: functional; conditions: route intraperitoneal
[12] = Antitumor activity against Mus musculus (mouse) DLA cells transplanted in Swiss albino mouse assessed as decrease in cholesterol level at 50 mg/kg, ip qd administered 24 hr post tumor transplantation for 14 days measured on day 14 (reference value: 140.86 +/- 4.6 mg/dl); assay type: functional; conditions: route intraperitoneal
[13] = Antitumor activity against Mus musculus (mouse) DLA cells transplanted in Swiss albino mouse assessed as increase in platelet count at 50 mg/kg, ip qd administered 24 hr post tumor transplantation for 14 days measured on day 14 (reference value: 1.6 +/- 0.52 lakhs/mm3); assay type: functional; conditions: route intraperitoneal
[14] = Antitumor activity against Mus musculus (mouse) DLA cells transplanted in Swiss albino mouse assessed as increase in life span at 20 mg/kg, ip qd administered 24 hr post tumor transplantation for 14 days measured on day 14 (reference value: 50%); assay type: functional; conditions: route intraperitoneal
[15] = Antitumor activity against Mus musculus (mouse) DLA cells transplanted in Swiss albino mouse assessed as increase in platelet count at 20 mg/kg, ip qd administered 24 hr post tumor transplantation for 14 days measured on day 14 (reference value: 1.6 +/- 0.52 lakhs/mm3); assay type: functional; conditions: route intraperitoneal
[16] = Antitumor activity against Mus musculus (mouse) DLA cells transplanted in Swiss albino mouse assessed as decrease in packed cell volume at 20 mg/kg, ip qd administered 24 hr post tumor transplantation for 14 days measured on day 14 (reference value: 30.55 +/- 3.52%); assay type: functional; set-up: scale not given: the % may be the effect or the level left; conditions: route intraperitoneal
[17] = Antitumor activity against Mus musculus (mouse) DLA cells transplanted in Swiss albino mouse assessed as increase in haemoglobin level at 20 mg/kg, ip qd administered 24 hr post tumor transplantation for 14 days measured on day 14 (reference value: 7.12 +/- 0.95 g/dl); assay type: functional; conditions: route intraperitoneal
[18] = Antitumor activity against Mus musculus (mouse) DLA cells transplanted in Swiss albino mouse assessed as decrease in total WBC count measured 10^3 cells at 20 mg/kg, ip qd administered 24 hr post tumor transplantation for 14 days measured on day 14 (reference value: 14.40 +/- 2.5 ml); assay type: functional; conditions: route intraperitoneal
[19] = Antitumor activity against Mus musculus (mouse) DLA cells transplanted in Swiss albino mouse assessed as increase in RBC count at 20 mg/kg, ip qd administered 24 hr post tumor transplantation for 14 days measured on day 14 (reference value: 2.46 +/- 0.45 million/mm3); assay type: functional; conditions: route intraperitoneal
[20] = Antitumor activity against Mus musculus (mouse) DLA cells transplanted in Swiss albino mouse assessed as decrease in alkaline phosphatase level at 20 mg/kg, ip qd administered 24 hr post tumor transplantation for 14 days measured on day 14 (reference value: 242.22 +/- 4.3 U/L); assay type: functional; conditions: route intraperitoneal
[21] = Antitumor activity against Mus musculus (mouse) DLA cells transplanted in Swiss albino mouse assessed as decrease in cancer cell count measured 10^6 cells at 20 mg/kg, ip qd administered 24 hr post tumor transplantation for 14 days measured on day 14 (reference value: 2.76 +/- 0.33 ml); assay type: functional, Cancer cell lines; conditions: route intraperitoneal
[22] = Antitumor activity against Mus musculus (mouse) DLA cells transplanted in Swiss albino mouse assessed as decrease in body weight at 20 mg/kg, ip qd administered 24 hr post tumor transplantation for 14 days measured on day 14 (reference value: 7.6 +/- 0.94 g); assay type: functional; conditions: route intraperitoneal
[23] = Antitumor activity against Mus musculus (mouse) DLA cells transplanted in Swiss albino mouse assessed as decrease in alanine amino transferase level at 20 mg/kg, ip qd administered 24 hr post tumor transplantation for 14 days measured on day 14 (reference value: 61.2 +/- 2.6 U/L); assay type: functional; conditions: route intraperitoneal
[24] = Antitumor activity against Mus musculus (mouse) DLA cells transplanted in Swiss albino mouse assessed as decrease in aspartate amino transferase level at 20 mg/kg, ip qd administered 24 hr post tumor transplantation for 14 days measured on day 14 (reference value: 85.6 +/- 2.72 U/L); assay type: functional; conditions: route intraperitoneal
[25] = Antitumor activity against Mus musculus (mouse) DLA cells transplanted in Swiss albino mouse assessed as decrease in triglyceride level at 20 mg/kg, ip qd administered 24 hr post tumor transplantation for 14 days measured on day 14 (reference value: 210.12 +/- 4.65 mg/dl); assay type: functional; conditions: route intraperitoneal
[26] = Antitumor activity against Mus musculus (mouse) DLA cells transplanted in Swiss albino mouse assessed as decrease in cholesterol level at 20 mg/kg, ip qd administered 24 hr post tumor transplantation for 14 days measured on day 14 (reference value: 140.86 +/- 4.6 mg/dl); assay type: functional; conditions: route intraperitoneal

Structure (SMILES)	Activity [1]	Activity [2]	Activity [3]	Activity [4]	Activity [5]	ED50 (Mus musculus)	Activity [6]	Activity [7]	Activity [8]	Activity [9]	Activity [10]	Activity [11]	Activity [12]	Activity [13]	further results
O=C1NC(=O)C(=C(/C=C/c2cccc([N+](=O)[O-])c2)c2nc3ccccc3[nH]2)C(=O)N1	202.85 U/L	20.48%	10.5 g/dL	3.3 million/mm3	12.45	50 mg/kg	1.88 mL	5.88 g	76%	53.42 U/L	72.6 U/L	168.7 mg/dL	122.3 mg/dL	2.3 ×10⁵ /mm3	
CN(C)c1ccc(/C=C/C(=C2C(=O)NC(=O)NC2=O)c2nc3ccccc3[nH]2)cc1	210.21 U/L	22.42%	10.42 g/dL	3.25 million/mm3	12.5	50 mg/kg	1.9 mL	5.9 g	74%	51.45 U/L	73.4 U/L	172.4 mg/dL	124.3 mg/dL	2.22 ×10⁵ /mm3	
O=C1NC(=O)C(=C(/C=C/c2ccc(Cl)cc2)c2nc3ccccc3[nH]2)C(=O)N1	223.36 U/L	23.1%	10.3 g/dL	3.1 million/mm3	12.7	50 mg/kg	2.12 mL	6.6 g	70%	55.6 U/L	76.52 U/L	182.5 mg/dL	129.32 mg/dL	2.1 ×10⁵ /mm3	
O=C1NC(=O)C(=C(/C=C/c2ccccc2O)c2nc3ccccc3[nH]2)C(=O)N1	229.15 U/L	23.68%	10.1 g/dL	2.8 million/mm3	13.45	50 mg/kg	2.03 mL	5.43 g	69%	56.42 U/L	75.4 U/L	178.7 mg/dL	131.3 mg/dL	2.05 ×10⁵ /mm3	
O=c1[nH]cc(F)c(=O)[nH]1 [FLUOROURACIL]															Activity [14]: 94%; Activity [15]: 2.65 ×10⁵ /mm3; Activity [16]: 17.45%; Activity [17]: 11.5 g/dL; Activity [18]: 11.3 mL; Activity [19]: 4.1 million/mm3; Activity [20]: 162.3 U/L; Activity [21]: 1.3 mL; Activity [22]: 3.7 g; Activity [23]: 42.45 U/L; Activity [24]: 56.3 U/L; Activity [25]: 156.42 mg/dL; Activity [26]: 112.52 mg/dL
O=C1NC(=O)C(=C(/C=C/c2ccccc2)c2nc3ccccc3[nH]2)C(=O)N1	232.32 U/L	24.1%	9.3 g/dL	2.9 million/mm3	13.8	50 mg/kg	2.26 mL	6.45 g	66%	57.3 U/L	77.6 U/L	186.85 mg/dL	136.45 mg/dL	1.99 ×10⁵ /mm3	
COc1ccc(/C=C/C(=C2C(=O)NC(=O)NC2=O)c2nc3ccccc3[nH]2)cc1	218.26 U/L	22.9%	10.28 g/dL	3.15 million/mm3	12.55	50 mg/kg	1.96 mL	6.3 g	72%	53.52 U/L	75.62 U/L	170.6 mg/dL	126.35 mg/dL	2.12 ×10⁵ /mm3	

From ChEMBL document CHEMBL3045992, “Antitumour activity of 5-[(2E)-1-(1H-benzimidazol-2-yl)-3-substituted phenylprop-2-en-1-ylidene] pyrimidine-2,4,6(1H,3H,5H)-triones against Daltons ascitic lymphoma in mice” (Med Chem Res, 2013)
